Test results published in the C3SDB collision cross section collection.

Conditions: instrument: TW, calibrated with polyalanine and drug standards

SMILES | collision cross section (N2) ([M+H]+) | also measured
Nc1c2ccccc2nc2ccccc12 [AMINACRINE] | 136.8 Å² | –
CC(CC(C(N)=O)(c1ccccc1)c1ccccc1)N(C)C (stereo not drawn) [AMINOPENTAMIDE] | 169.6 Å² | –
Nc1nc(N)c2nc(CNc3ccc(C(=O)N[C@@H](CCC(=O)O)C(=O)O)cc3)cnc2n1 [AMINOPTERIN] | 204.4 Å² | –
CCN(CC)Cc1cc(Nc2ccnc3cc(Cl)ccc23)ccc1O [AMODIAQUINE] | 191.9 Å² | –
Cc1c(N)c(=O)n(-c2ccccc2)n1C [AMPYRONE] | 142.6 Å² | –
N#C[C@H](O[C@@H]1O[C@H](CO[C@@H]2O[C@H](CO)[C@@H](O)[C@H](O)[C@H]2O)[C@@H](O)[C@H](O)[C@H]1O)c1ccccc1 [AMYGDALIN] | 200.6 Å² | –
C[C@]12C=CC(=O)C=C1CC[C@@H]1[C@@H]2CC[C@]2(C)C(=O)CC[C@@H]12 [ANDROSTA-1,4-DIEN-3,17-DIONE] | 168.4 Å² | –
COc1ccc(-c2cc(=O)c3c(O)cc(OC)cc3o2)cc1 [APIGENIN DIMETHYL ETHER] | 163 Å² | –
O=c1cc(-c2ccc(O)cc2)oc2cc(O)cc(O)c12 [APIGENIN] | 156 Å² | –
C=CCc1cc(OC)c2c(c1OC)OCO2 [APIOLE] | 146.1 Å² | –
Nc1ccc([As](=O)(O)O)cc1 [ARSANILIC ACID] | 133.2 Å² | –
C[C@@H]1CC[C@H]2[C@@H](C)C(=O)O[C@@H]3O[C@@]4(C)CC[C@@H]1[C@]32OO4 [ARTEMISININ] | – | collision cross section (N2) ([M+Na]+): 168.1 Å²
CCCCCC(=O)Cc1cc(O)cc(O)c1C(=O)Oc1cc(CC(=O)CCCCC)c(C(=O)O)c(OC)c1 [ARTHONIOIC ACID] | – | collision cross section (N2) ([M+H-H2O]+): 231.7 Å²
C[N+]1([O-])C2CCC1CC(OC(=O)C(CO)c1ccccc1)C2 (stereo not drawn) [ATROPINE OXIDE] | 172.4 Å² | –
C/C=C(\C)C(=O)O[C@H]1C[C@@H](OC(C)=O)[C@@]2(C(=O)OC)CO[C@H]3[C@@H](O)[C@@](C)([C@]45O[C@@]4(C)[C@H]4C[C@@H]5O[C@@H]5OC=C[C@@]54O)[C@H]4[C@]1(CO[C@]4(O)C(=O)OC)[C@@H]32 [AZADIRACHTIN] | – | collision cross section (N2) ([M+Na]+): 241.4 Å²
CC[C@H]1OC(=O)[C@H](C)[C@@H](O[C@H]2C[C@@](C)(OC)[C@@H](O)[C@H](C)O2)[C@H](C)[C@@H](O[C@@H]2O[C@H](C)C[C@H](N(C)C)[C@H]2O)[C@](C)(O)C[C@@H](C)CN(C)[C@H](C)[C@@H](O)[C@]1(C)O [AZITHROMYCIN] | 263.5 Å² | –
C[C@H]1[C@H](NC(=O)/C(=N\OC(C)(C)C(=O)O)c2csc(N)n2)C(=O)N1S(=O)(=O)O [AZTREONAM] | 197.4 Å² | –
CCCCCCCCCCCC[N+](C)(C)Cc1ccccc1 [BENZALKONIUM CHLORIDE C12] | – | collision cross section (N2) ([M]+): 193 Å²
CCCCCCCCCCCCCCCC[N+](C)(C)Cc1ccccc1 [BENZALKONIUM CHLORIDE C16] | – | collision cross section (N2) ([M]+): 214.8 Å²
CCc1oc2ccccc2c1C(=O)c1cc(Br)c(O)c(Br)c1 [BENZBROMARONE] | 176 Å² | –
CCOC(=O)c1ccc(N)cc1 [BENZOCAINE] | 145.9 Å² | –
O=C(O)c1ccccc1 [BENZOIC ACID] | 122.2 Å² | –

SMILES | collision cross section (N2) ([M+H]+) | also measured
NS(=O)(=O)c1cc2c(cc1Cl)NC(CSCc1ccccc1)=NS2(=O)=O [BENZTHIAZIDE] | 186.7 Å² | –
CCC(=O)OCC(=O)[C@@]1(OC(=O)CC)[C@@H](C)C[C@H]2[C@@H]3CCC4=CC(=O)C=C[C@]4(C)[C@@]3(F)[C@@H](O)C[C@@]21C [BETAMETHASONE 17,21-DIPROPIONATE] | 218.1 Å² | –
CC(=O)Oc1ccc(C(c2ccc(OC(C)=O)cc2)c2ccccn2)cc1 [BISACODYL] | 193.3 Å² | –
COc1cc2c(cc1O)C[C@H]1c3c(cc(O)c(OC)c3-2)CCN1C [BOLDINE] | 179.2 Å² | –
CCN(CC)CCNC(=O)c1cc(Br)c(N)cc1OC [BROMOPRIDE] | 173.6 Å² | –
O=C(CCCN1CCC(O)(c2ccc(Br)cc2)CC1)c1ccc(F)cc1 [BROMPERIDOL] | 194.9 Å² | –
Oc1c(Br)cc(Br)c2cccnc12 [BROXYQUINOLINE] | 137.7 Å² | –
CCCCOc1ccc(CC(=O)NO)cc1 [BUFEXAMAC] | 161 Å² | –
COC(=O)C[C@H]1C2(C)CC34OC5(C)O[C@@]6([C@H](OC(C)=O)C(OC(C)=O)[C@]7(C)C(/C(=C(/O)C(C)C)C(=O)O[C@H]7c7ccoc7)[C@@]6(O5)[C@H](OC(C)=O)[C@@]3(O)C2OC(=O)C(C)C)[C@]14C (stereo partly drawn) [BUSSEIN] | 258.7 Å² | –
CCCCOC(=O)c1ccc(N)cc1 [BUTAMBEN] | 159.4 Å² | –
CC[C@@]1(O)C(=O)OCc2c1cc1n(c2=O)Cc2cc3ccccc3nc2-1 [CAMPTOTHECIN] | 181.9 Å² | –
COc1cc(C(=O)NCCCCCC(=O)O)cc(OC)c1OC [CAPOBENIC ACID] | 176.9 Å² | –
COc1cc(CNC(=O)CCCC/C=C/C(C)C)ccc1O [CAPSAICIN] | 181.6 Å² | –
COC(=O)C[C@H]1C(C)(C)C(=O)[C@@H]2CC3=C(CC[C@]4(C)C3=CC(=O)O[C@H]4c3ccoc3)[C@@]1(C)C2=O [CARAPIN-8(9)-ENE] | 206.3 Å² | –
CCOC(=O)n1ccn(C)c1=S [CARBIMAZOLE] | 134.4 Å² | –
CC(=O)Oc1cc(OC(C)=O)c2c(c1)O[C@H](c1ccc(OC(C)=O)c(OC(C)=O)c1)[C@@H](OC(C)=O)C2 [CATECHIN PENTAACETATE] | – | collision cross section (N2) ([M+Na]+): 206.6 Å²
CC1=C(C(=O)O)N2C(=O)[C@@H](NC(=O)[C@H](N)c3ccc(O)cc3)[C@H]2SC1 [CEFADROXIL] | 183.1 Å² | –
CC(C)(O/N=C(\C(=O)N[C@@H]1C(=O)N2C(C(=O)[O-])=C(C[n+]3ccccc3)CS[C@H]12)c1csc(N)n1)C(=O)O [CEFTAZIDIME] | 218.2 Å² | –
Nc1nc(/C(=C/CC(=O)O)C(=O)N[C@@H]2C(=O)N3C(C(=O)O)=CCS[C@H]23)cs1 [CEFTIBUTEN] | 191.4 Å² | –
OC[C@H]1O[C@@H](O[C@H]2[C@H](O)[C@@H](O)[C@@H](O)O[C@@H]2CO)[C@H](O)[C@@H](O)[C@@H]1O [CELLOBIOSE (D[+])] | – | collision cross section (N2) ([M+Na]+): 175.7 Å²
C/C=C(/C)C(=O)O[C@H]1CC[C@@]2(C)[C@@H]3CC[C@H]4[C@]5(O)C[C@H](O)[C@@]6(O)[C@@H](CN7C[C@@H](C)CC[C@H]7[C@@]6(C)O)[C@]5(O)C[C@@]42O[C@]13O [CEVADINE] | 237.2 Å² | –
